Values after ≈ are worked out from the molar mass of the structure shown.
Columns and labels:
Assay type in all cases: functional
Pseudomonas aeruginosa [1] = assay: Antimicrobial activity against Pseudomonas aeruginosa ATCC 27859 after 24 hr by serial microdilution method; conditions: ATCC 27859, 24 h
Salmonella enteritidis [2] = assay: Antimicrobial activity against Salmonella enterica subsp. enterica serovar Enteritidis ATCC 13076 after 24 hr by serial microdilution method; conditions: ATCC 13076, 24 h
Proteus vulgaris [3] = assay: Antimicrobial activity against Proteus vulgaris KUEN 1329 after 24 hr by serial microdilution method; conditions: KUEN 1329, 24 h
Candida albicans [4] = assay: Antimicrobial activity against Candida albicans ATCC 1213 by serial microdilution method
Escherichia coli [5] = assay: Antimicrobial activity against Escherichia coli 111 after 24 hr by serial microdilution method; conditions: Escherichia coli, 111, 24 h
Staphylococcus aureus [6] = assay: Antimicrobial activity against Staphylococcus aureus ATCC 29213 after 24 hr by serial microdilution method; conditions: ATCC 29213, 24 h
Pseudomonas aeruginosa [7] = assay: Antimicrobial activity against Pseudomonas aeruginosa ATCC 9027 after 24 hr by serial microdilution method; conditions: ATCC 9027, 24 h
Streptococcus pyogenes [8] = assay: Antimicrobial activity against Streptococcus pyogenes ATCC 176 after 24 hr by serial microdilution method; conditions: ATCC 176, 24 h
Cyberlindnera jadinii [9] = assay: Antimicrobial activity against Cyberlindnera jadinii KUEN 1031 serial microdilution method; conditions: Williopsis jadinii
Bacillus subtilis [10] = assay: Antimicrobial activity against Bacillus subtilis ATCC 6633 after 24 hr by serial microdilution method; conditions: ATCC 6633, 24 h
Bacillus cereus [11] = assay: Antimicrobial activity against Bacillus cereus DSM 4312 after 24 hr by serial microdilution method; conditions: DSM 4312, 24 h
Escherichia coli [12] = assay: Antimicrobial activity against Escherichia coli 111 at 105 ug/disk after 24 hr by disk diffusion method; conditions: Escherichia coli, 111, 24 h; read-out: IZ
Cyberlindnera jadinii [13] = assay: Antimicrobial activity against Cyberlindnera jadinii KUEN 1031 at 105 ug/disc after 48 hr by disk diffusion method; conditions: Williopsis jadinii, KUEN 1031, 48 h; read-out: IZ
Streptococcus pyogenes [14] = assay: Antimicrobial activity against Streptococcus pyogenes ATCC 176 at 105 ug/disc after 24 hr by disc diffusion method; conditions: ATCC 176, 24 h, read-out: IZ
Candida albicans [15] = assay: Antimicrobial activity against Candida albicans ATCC 1213 at 105 ug/disk after 48 hr by disk diffusion method; conditions: ATCC 1213, 48 h, read-out: IZ
Pseudomonas aeruginosa [16] = assay: Antimicrobial activity against Pseudomonas aeruginosa ATCC 9027 at 105 ug/disk after 24 hr by disk diffusion method; conditions: ATCC 9027, 24 h, read-out: IZ
Pseudomonas aeruginosa [17] = assay: Antimicrobial activity against Pseudomonas aeruginosa ATCC 27859 at 105 ug/disk after 24 hr by disk diffusion method; conditions: ATCC 27859, 24 h, read-out: IZ
Proteus vulgaris [18] = assay: Antimicrobial activity against Proteus vulgaris KUEN 1329 at 105 ug/disk after 24 hr by disk diffusion method; conditions: KUEN 1329, 24 h, read-out: IZ
Staphylococcus aureus [19] = assay: Antimicrobial activity against Staphylococcus aureus ATCC 29213 at 105 ug/disc after 24 hr by disk diffusion method; conditions: ATCC 29213, 24 h, read-out: IZ
Bacillus cereus [20] = assay: Antimicrobial activity against Bacillus cereus DSM 4312 at 105 ug/disk after 24 hr by disk diffusion method; conditions: DSM 4312, 24 h, read-out: IZ
Bacillus subtilis [21] = assay: Antimicrobial activity against Bacillus subtilis ATCC 6633 at 105 ug/disk after 24 hr by disk diffusion method; conditions: ATCC 6633, 24 h, read-out: IZ
Salmonella enteritidis [22] = assay: Antimicrobial activity against Salmonella enterica subsp. enterica serovar Enteritidis ATCC 13076 at 105 ug/disk after 24 hr by disk diffusion method; conditions: ATCC 13076, 24 h, read-out: IZ

## CC1(C)S[C@@H]2[C@H](NC(=O)[C@H](N)c3ccccc3)C(=O)N2[C@H]1C(=O)O [AMPICILLIN]
Pseudomonas aeruginosa [1]
  MIC: > 125 µg/mL
Salmonella enteritidis [2]
  MIC: > 125 µg/mL
Proteus vulgaris [3]
  MIC: 15.6 µg/mL (≈ 44.7 µM)
Candida albicans [4]
  MIC: > 125 µg/mL
Escherichia coli [5]
  MIC: > 125 µg/mL
Staphylococcus aureus [6]
  MIC: > 125 µg/mL
Pseudomonas aeruginosa [7]
  MIC: 7.81 µg/mL (≈ 22.4 µM)
Streptococcus pyogenes [8]
  MIC: 3.9 µg/mL (≈ 11.2 µM)
Cyberlindnera jadinii [9]
  MIC: 7.81 µg/mL (≈ 22.4 µM)
Bacillus subtilis [10]
  MIC: > 125 µg/mL
Bacillus cereus [11]
  MIC: > 125 µg/mL

## COc1ccc(C(=O)CC(Sc2ccccc2)c2ccco2)cc1 (stereo not drawn)
Pseudomonas aeruginosa [1]
  MIC: 62.5 µg/mL (≈ 185 µM)
Salmonella enteritidis [2]
  MIC: > 125 µg/mL
Escherichia coli [12]
  zone of inhibition at 105 µg/disc: 10 mm
Proteus vulgaris [3]
  MIC: 62.5 µg/mL (≈ 185 µM)
Cyberlindnera jadinii [13]
  zone of inhibition at 105 µg/disc: 12 mm
Candida albicans [4]
  MIC: > 125 µg/mL
Escherichia coli [5]
  MIC: 62.5 µg/mL (≈ 185 µM)
Staphylococcus aureus [6]
  MIC: > 125 µg/mL
Pseudomonas aeruginosa [7]
  MIC: 62.5 µg/mL (≈ 185 µM)
Streptococcus pyogenes [8]
  MIC: > 125 µg/mL
Streptococcus pyogenes [14]
  zone of inhibition at 105 µg/disc: 13 mm
Candida albicans [15]
  zone of inhibition at 105 µg/disc: 12 mm
Cyberlindnera jadinii [9]
  MIC: 125 µg/mL (≈ 369 µM)
Pseudomonas aeruginosa [16]
  zone of inhibition at 105 µg/disc: 13 mm
Bacillus subtilis [10]
  MIC: 125 µg/mL (≈ 369 µM)
Bacillus cereus [11]
  MIC: 62.5 µg/mL (≈ 185 µM)

## COc1ccccc1C(=O)CC(Sc1ccccc1)c1ccco1 (stereo not drawn)
Pseudomonas aeruginosa [1]
  MIC: 62.5 µg/mL (≈ 185 µM)
Salmonella enteritidis [2]
  MIC: 15.6 µg/mL (≈ 46.2 µM)
Escherichia coli [12]
  zone of inhibition at 105 µg/disc: 13 mm
Pseudomonas aeruginosa [17]
  zone of inhibition at 105 µg/disc: 15 mm
Proteus vulgaris [3]
  MIC: 31.2 µg/mL (≈ 92.3 µM)
Cyberlindnera jadinii [13]
  zone of inhibition at 105 µg/disc: 14 mm
Candida albicans [4]
  MIC: 125 µg/mL (≈ 369 µM)
Proteus vulgaris [18]
  zone of inhibition at 105 µg/disc: 15 mm
Staphylococcus aureus [19]
  zone of inhibition at 105 µg/disc: 17 mm
Escherichia coli [5]
  MIC: 62.5 µg/mL (≈ 185 µM)
Bacillus cereus [20]
  zone of inhibition at 105 µg/disc: 10 mm
Staphylococcus aureus [6]
  MIC: 7.81 µg/mL (≈ 23.1 µM)
Pseudomonas aeruginosa [7]
  MIC: 31.2 µg/mL (≈ 92.3 µM)
Streptococcus pyogenes [8]
  MIC: 31.2 µg/mL (≈ 92.3 µM)
Streptococcus pyogenes [14]
  zone of inhibition at 105 µg/disc: 15 mm
Candida albicans [15]
  zone of inhibition at 105 µg/disc: 17 mm
Cyberlindnera jadinii [9]
  MIC: 125 µg/mL (≈ 369 µM)
Pseudomonas aeruginosa [16]
  zone of inhibition at 105 µg/disc: 15 mm
Bacillus subtilis [10]
  MIC: 31.2 µg/mL (≈ 92.3 µM)
Bacillus subtilis [21]
  zone of inhibition at 105 µg/disc: 14 mm
Salmonella enteritidis [22]
  zone of inhibition at 105 µg/disc: 18 mm
Bacillus cereus [11]
  MIC: 31.2 µg/mL (≈ 92.3 µM)

## O=C(CC(Sc1ccccc1)c1ccco1)c1ccccc1O (stereo not drawn)
Pseudomonas aeruginosa [1]
  MIC: 125 µg/mL (≈ 385 µM)
Salmonella enteritidis [2]
  MIC: 31.2 µg/mL (≈ 96.3 µM)
Pseudomonas aeruginosa [17]
  zone of inhibition at 105 µg/disc: 17 mm
Proteus vulgaris [3]
  MIC: 7.81 µg/mL (≈ 24.1 µM)
Cyberlindnera jadinii [13]
  zone of inhibition at 105 µg/disc: 15 mm
Candida albicans [4]
  MIC: 125 µg/mL (≈ 385 µM)
Proteus vulgaris [18]
  zone of inhibition at 105 µg/disc: 18 mm
Staphylococcus aureus [19]
  zone of inhibition at 105 µg/disc: 16 mm
Escherichia coli [5]
  MIC: 15.6 µg/mL (≈ 48.2 µM)
Bacillus cereus [20]
  zone of inhibition at 105 µg/disc: 15 mm
Staphylococcus aureus [6]
  MIC: 15.6 µg/mL (≈ 48.2 µM)
Pseudomonas aeruginosa [7]
  MIC: > 125 µg/mL
Streptococcus pyogenes [8]
  MIC: 3.9 µg/mL (≈ 12 µM)
Streptococcus pyogenes [14]
  zone of inhibition at 105 µg/disc: 17 mm
Candida albicans [15]
  zone of inhibition at 105 µg/disc: 21 mm
Cyberlindnera jadinii [9]
  MIC: 7.81 µg/mL (≈ 24.1 µM)
Pseudomonas aeruginosa [16]
  zone of inhibition at 105 µg/disc: 14 mm
Bacillus subtilis [10]
  MIC: 15.6 µg/mL (≈ 48.2 µM)
Bacillus subtilis [21]
  zone of inhibition at 105 µg/disc: 17 mm
Salmonella enteritidis [22]
  zone of inhibition at 105 µg/disc: 19 mm
Bacillus cereus [11]
  MIC: 15.6 µg/mL (≈ 48.2 µM)

## COc1cccc(C(=O)CC(Sc2ccccc2)c2ccco2)c1 (stereo not drawn)
Pseudomonas aeruginosa [1]
  MIC: 125 µg/mL (≈ 369 µM)
Salmonella enteritidis [2]
  MIC: 62.5 µg/mL (≈ 185 µM)
Escherichia coli [12]
  zone of inhibition at 105 µg/disc: 14 mm
Proteus vulgaris [3]
  MIC: 31.2 µg/mL (≈ 92.3 µM)
Cyberlindnera jadinii [13]
  zone of inhibition at 105 µg/disc: 13 mm
Candida albicans [4]
  MIC: 15.6 µg/mL (≈ 46.2 µM)
Proteus vulgaris [18]
  zone of inhibition at 105 µg/disc: 14 mm
Escherichia coli [5]
  MIC: 31.2 µg/mL (≈ 92.3 µM)
Staphylococcus aureus [6]
  MIC: > 125 µg/mL
Pseudomonas aeruginosa [7]
  MIC: > 125 µg/mL
Streptococcus pyogenes [8]
  MIC: 7.81 µg/mL (≈ 23.1 µM)
Candida albicans [15]
  zone of inhibition at 105 µg/disc: 17 mm
Cyberlindnera jadinii [9]
  MIC: 15.6 µg/mL (≈ 46.2 µM)
Bacillus subtilis [10]
  MIC: 62.5 µg/mL (≈ 185 µM)
Bacillus subtilis [21]
  zone of inhibition at 105 µg/disc: 12 mm
Salmonella enteritidis [22]
  zone of inhibition at 105 µg/disc: 17 mm
Bacillus cereus [11]
  MIC: 62.5 µg/mL (≈ 185 µM)

## O=C(CC(Sc1ccccc1)c1ccco1)c1ccc(Cl)cc1 (stereo not drawn)
Pseudomonas aeruginosa [1]
  MIC: > 125 µg/mL
Salmonella enteritidis [2]
  MIC: 62.5 µg/mL (≈ 182 µM)
Escherichia coli [12]
  zone of inhibition at 105 µg/disc: 10 mm
Proteus vulgaris [3]
  MIC: 7.81 µg/mL (≈ 22.8 µM)
Cyberlindnera jadinii [13]
  zone of inhibition at 105 µg/disc: 14 mm
Candida albicans [4]
  MIC: 62.5 µg/mL (≈ 182 µM)
Proteus vulgaris [18]
  zone of inhibition at 105 µg/disc: 14 mm
Escherichia coli [5]
  MIC: 62.5 µg/mL (≈ 182 µM)
Bacillus cereus [20]
  zone of inhibition at 105 µg/disc: 10 mm
Staphylococcus aureus [6]
  MIC: > 125 µg/mL
Pseudomonas aeruginosa [7]
  MIC: > 125 µg/mL
Streptococcus pyogenes [8]
  MIC: 125 µg/mL (≈ 365 µM)
Streptococcus pyogenes [14]
  zone of inhibition at 105 µg/disc: 13 mm
Candida albicans [15]
  zone of inhibition at 105 µg/disc: 14 mm
Cyberlindnera jadinii [9]
  MIC: 62.5 µg/mL (≈ 182 µM)
Pseudomonas aeruginosa [16]
  zone of inhibition at 105 µg/disc: 15 mm
Bacillus subtilis [10]
  MIC: > 125 µg/mL
Salmonella enteritidis [22]
  zone of inhibition at 105 µg/disc: 17 mm
Bacillus cereus [11]
  MIC: 31.2 µg/mL (≈ 91.1 µM)

## O=C(CC(Sc1ccccc1)c1ccco1)c1ccc(O)cc1 (stereo not drawn)
Pseudomonas aeruginosa [1]
  MIC: 62.5 µg/mL (≈ 193 µM)
Salmonella enteritidis [2]
  MIC: 62.5 µg/mL (≈ 193 µM)
Escherichia coli [12]
  zone of inhibition at 105 µg/disc: 10 mm
Proteus vulgaris [3]
  MIC: 7.81 µg/mL (≈ 24.1 µM)
Cyberlindnera jadinii [13]
  zone of inhibition at 105 µg/disc: 13 mm
Candida albicans [4]
  MIC: 15.6 µg/mL (≈ 48.2 µM)
Proteus vulgaris [18]
  zone of inhibition at 105 µg/disc: 17 mm
Escherichia coli [5]
  MIC: 62.5 µg/mL (≈ 193 µM)
Staphylococcus aureus [6]
  MIC: 31.2 µg/mL (≈ 96.3 µM)
Pseudomonas aeruginosa [7]
  MIC: 62.5 µg/mL (≈ 193 µM)
Streptococcus pyogenes [8]
  MIC: 7.81 µg/mL (≈ 24.1 µM)
Candida albicans [15]
  zone of inhibition at 105 µg/disc: 20 mm
Cyberlindnera jadinii [9]
  MIC: 62.5 µg/mL (≈ 193 µM)
Pseudomonas aeruginosa [16]
  zone of inhibition at 105 µg/disc: 14 mm
Bacillus subtilis [10]
  MIC: 31.2 µg/mL (≈ 96.3 µM)
Salmonella enteritidis [22]
  zone of inhibition at 105 µg/disc: 17 mm
Bacillus cereus [11]
  MIC: 31.2 µg/mL (≈ 96.3 µM)

Reference: ChEMBL document CHEMBL3046841, “The synthesis and screening of the antimicrobial activity of some novel 3-(furan-2-yl)-1-(aryl)-3-(phenylthio) propan-1-one derivatives” (2011)
